Tests used:
LNCaP cells = assay: MTT growth inhibition assay, LNCaP; conditions: for Viability (%) LNCaP: 24 h (Table 2); for Viability (%) / IC50: LNCaP; for Viability (%): 24 h (Table 1); for IC50: androgen-dependent prostate adenocarcinoma
Method: The LNCaP (androgen-sensitive), PC3 (androgen in-dependent), human prostate cancer and normal human fibroblast 3T3 were obtained from American Type Culture Collection (Manassas, Va.) were maintained with RPMI 1640 medium containing 10% FBS and […] each of penicillin and streptomycin at […] in a humidified atmosphere with 5% CO2.
The viability of the cells after treated with various chemicals was evaluated using MTT assay preformed in triplicate (Mosmann T. 1983. Rapid colorimetric assay for cellular growth and survival: application to proliferation and cytotoxicity assays”. Journal of immunological methods. 65 (1-2): 55-63). Briefly, the cancer cells (5×10^3) were incubated in 96-well plates containing […] of the culture medium. Cells were permitted to adhere for 12-18 h then washed with phosphate buffered saline (PBS). Solutions were always prepared fresh by dissolving 0.2% DMSO or K8 in culture medium and added to various kind of tumor. After 48 h of exposure, K8 containing medium was removed, washed with PBS and replaced by fresh medium. The cells in each well were then incubated in culture medium with […] MTT for 4 h. After the medium were removed, […] of DMSO and […] of glycine buffer (0.1 M glycine, 0.1 M NaCl, pH 10.5) were added to each well. Absorbance at 570 nm of the maximum was detected by a PowerWave X Microplate ELISA Reader (Bio-TeK Instruments, Winoski, Vt.). The absorbance for DMSO treated cells was considered as 100%. The results were determined by three independent experiments.
Cytotoxicity of K8 (Isochaihulactone) on LNCaP cells was examined in the manner described above. The cells were treated with KS (Isochaihulactone), its Z-form, or its E-form of different concentrations ranging from 2.5 to 20 μM for 24 h.
Cytotoxicities of Z-K8 (Isochaihulactone) on LNCaP (AR-dependent), and PC3 (AR-independent) tumor cell line were examined in the manner described above. The cells were treated with the Z- or E-form K8 (Isochaihulactone) of different concentrations ranging from 0.3125 to 5 μM for 24 h.

[1] = tested on: gastric cancer cell line NCI-N87; assay: MTT growth inhibition assay, NCI-N87; assay type: cell-based; conditions: NCI-N87, gastric carcinoma
Method: (§1) The results were determined by three independent experiments.
(§2) Besides, the above assay was also conducted on gastric cancer cell line NCI-N87, liver cancer cell line HepG2 and J5, lung cancer cell line A549, and oral cancer cell line OECM-1.

[2] = tested on: lung cancer cell line A549; assay: MTT growth inhibition assay, A549; assay type: cell-based, human; conditions: A549, lung adenocarcinoma
Method: as §1, §2

[3] = tested on: oral cancer cell line OECM-1; assay: MTT growth inhibition assay, OECM-1; assay type: cell-based; conditions: OECM-1, oral squamous cell carcinoma
Method: as §1, §2

AR [4] = assay: RT-PCR analysis of AR expression; assay type: cell-based, human
Method: Total RNA from LNCaP, PC3, 3T3 cells was isolated as described above. cDNA was synthesized by reverse transcription of 2 μg of total RNA using oligo(dT)12-18 and SuperScript II RNA reverse transcriptase (Invitrogen). The cDNA was then used as the template to amplify the corresponding DNA fragments by PCR using two sets of synthetic oligonucleotide primers. DNA amplification was performed by PCR with the Thermocycler 2400 (PerkinElmer Life and Analytical Sciences, Boston, Mass.) using the following parameters: 35 cycles of denaturing at 95° C. for 1 min, annealing at 60° C. for 1 min, and extension at 72° C. for 2 min. Primers used for the AR PCR amplifications are (F): 5′-ATGGTGAGCAGAGTGCCCTA-3′ (SEQ ID NO: 1) (R): 5′-GTGGTGCTGGAAGCCTCTCCT-3′ (SEQ ID NO: 2) PSA (F) 5′-GGTGACCAAGTTCATGCTGTG-3′ (SEQ ID NO: 3) (R) 5′-GTGTCCTTGATCCACTTCCG-3′ (SEQ ID NO: 4) products were separated on 2% agarose gels, stained with ethidium bromide, and visualized using the Fluor Chem imaging system (Alpha InnoTech, San Leandro, Calif.), and levels of glyceraldehyde-3-phosphate dehydrogenase were used as the control.
RT-PCR was conducted to examine the effect of Z-K8 on several human cancer cells. Briefly, the cells were treated with Z-K8 (0.5 μM to 2 μM) or Luteolin (as a positive control) for 24 h. […]

AR [5] = assay: Immunohistochemical staining of xenograft tumors, AR; assay type: in vivo; conditions: mice treated with 30 mg/kg (FIG. 8B)
Method: Mice xenograft tissue samples were fixed in 10% formalin and embedded in paraffin. After routine rehydration, antigen retrieval and blocking, the sections were incubated in the primary antibody at 4° C. overnight. The primary antibody was recognized by the biotinylated secondary antibody and visualized by vectastain avidin-biotin complex peroxidase system (ABC kit) as well as peroxidase substrate 3,3′-diaminobenzidine kit (DAB kit).
Immunohistochemical staining was conducted using a cleaved caspase-3-specific antibody. […] Similar staining was carried our using an AR-specific antibody.

COc1cc(/C=C2\C(=O)OCC2Cc2ccc3c(c2)OCO3)cc(OC)c1OC (racemic) [Z-K8, Racemic (Z)-β-(3′,4′-Methylenedioxybenzyl)-α-(3′,4′,5′-trimethoxybenzylidene)-γ-butyrolactone]
Viability (%) LNCaP (LNCaP cells; 0.625 μM): 68.9%
Viability (%) LNCaP (LNCaP cells; 1.25 μM): 43.7%
Viability (%) LNCaP (LNCaP cells; 2.5 μM): 21.7%
Viability (%) LNCaP (LNCaP cells; 5 μM): 18.4%
Viability (%) LNCaP (LNCaP cells; 10 μM): 16.9%
Viability (%) (LNCaP cells; 2.5 μM): 33.0%
Viability (%) (LNCaP cells; 5 μM): 18.7%
Viability (%) (LNCaP cells; 10 μM): 17.2%
Viability (%) (LNCaP cells; 20 μM): 16.1%
IC50 (LNCaP cells): 1250 nM
IC50 (LNCaP cells; listed as Z-form of K8): 1000 nM
IC50 [1]: > 100000 nM
IC50 [2]: 9800 nM
IC50 [3]: 1000 nM
AR expression over time (RT-PCR) (AR [4]; LNCaP cells, 1 μM, different times (FIG. 3B)): decreased AR expression in a time-dependent manner
AR expression (RT-PCR) (AR [4]; human cancer cells, 0.5 μM to 2 μM, 24 h, dose-dependent (FIG. 3A)): down regulated
expression of AR in tumors (IHC) versus control (AR [5]): weaker

Reference: patent US20110178171A1, “COMPOUNDS FOR CANCER THERAPY” (China Medical University, priority 2010, published 2011)
